We go through 12 substances from paper PMC7139830, “Drug Conjugation Induced Modulation of Structural and Membrane Interaction Features of Cationic Cell-Permeable Peptides” (International Journal of Molecular Sciences, 2020).

Data set [1] in a line: Analytical RP-HPLC retention time on C-18 column as indicator of polarity. In kind it is physicochemical. The conditions noted are these: chromatographic, YMC-Pack ODS-A C18 (5 µm, 120 Å) 150 × 4.6 mm; gradient 5% B 2 min, 5%–100% B 20 min; A 0.1% TFA in water, B 0.1% TFA in acetonitrile/water 80/20; 1 mL/min; UV 220 nm. The text has this:
Cationic membrane active peptides and their INH-derivatives were synthesized in good yields, using previously described methods. Peptides were characterized with their monoisotopic molecular mass (M), retention time on a C-18 RP-HPLC column (Rt), estimated hydrophilicity values (H) and net charge (z) (see Table 1). Peptides are listed according to their retention times, which are the indicator of their polarity. […] This order of peptides’ polarity is almost equal to the relative hydrophilicity estimated from the amino acid composition. […] That might be the result of decreased charge due to INH coupling at the N-terminal, although the addition of INH molecule is expected to increase the polarity of the conjugate.
Purified peptides were analyzed by RP-HPLC, on an analytical C-18 column, using gradient elution with the abovementioned eluent A and B (flow rate was 1 mL/min, UV detection at λ = 220 nm). Molecular mass of the peptides was determined on a Thermo Scientific Q Exactive™ Focus Hybrid Quadrupole-Orbitrap™ Mass Spectrometer (ThermoFisher Scientific, Waltham, MA, USA).

In data set [2] the test system is EBC-1 cells. The format is cell-based, human.
Data set [3] in a line: AFM imaging of penetrated DPPC lipid layer. The format is physicochemical. The conditions noted are these: DPPC monolayer, AFM cross-section profiles. The text has this:
At the end of the membrane affinity measurements, the penetrated monolayers were transferred to a previously cleaned cover glass, to study the structural changes of the membranes by atomic force microscopy (Figure 5 and Figure 6). The surface of the original DPPC and mixed DPPC+mycolic acid monolayer is rather smooth, with a morphology described by typical roughness values presented in Table 2. (Ra is the average deviation of all points from a mean level over the evaluation area. Rq (RMS) is the root mean square roughness, while Rz is the average absolute value of the five highest peaks and the five lowest valleys over the evaluation area, being sensitive to positive or negative extremes of the image.) Well-defined homogenous lipid islands are formed by the ordered lipid molecules in equilibrium with the less-oriented film with smaller surface density as expected from the surface pressure–area isotherm. Comparing to this, the morphology of the penetrated monolayers was changed. The 3D images provide a visual impression on the surface, while the cross-section profiles allow the measurement of the height differences. […] This morphological change can also be expressed by the roughness factors determined by analyzing the AFM images (Table 2).
Penetrated Langmuir monolayers were transferred to a previously cleaned hydrophilic cover glass for atomic microscopy measurements. […]

Data set [4] in a line: AFM imaging of penetrated DPPC+mycolic acid lipid layer. The format is physicochemical. Conditions: DPPC+mycolic acid film, AFM cross-section profiles.
Data set [5] has as its system Mycobacterium tuberculosis H37Rv in infected MonoMac-6 human monocytes. In kind it is cell-based.

Read-outs that look alike come from different tables or passages of the source.

For “GIGKFLHSAKKFGKAFVGEIMNS [Magainin II, antimicrobial peptide isolated from amphibians]”, the “Rt, retention time on C-18 RP-HPLC column (indicator of polarity)” value (from here on “Rt, retention time”) in data set [1] was found to be 12.8.

On to CM15, for which the “Rt, retention time” value in data set [1] is recorded as 13.7.

As for “RQIKIWFQNRRMKWKK [Penetratin, cell-penetrating peptide]”, in data set [1], the “Rt, retention time” value came out at 10.9. For the same substance, the Subcellular localization result in data set [2] (Cf-labeled peptides, 60 min incubation, EBC-1 cells, confocal microscopy) is “diffused intracellular distribution”.

For the substance “INH-KRLFKKLLFSLRKY [INH–Dhvar4, isoniazid conjugated to the N-terminus of Dhvar4 via glyoxylic acid linker]”, the “Rt, retention time” value in data set [1] is reported as 12.8.

Take “INH-TKPKGTKPKGTKPKGTKPKG [INH–OT20, isoniazid conjugated to the N-terminus of OT20 via glyoxylic acid linker]”: in data set [1], the “Rt, retention time” value is on record as 7.0.

“INH-RQIKIWFQNRRMKWKK [INH–Penetratin, isoniazid conjugated to the N-terminus of Penetratin via glyoxylic acid linker]”: the “Rt, retention time” value in data set [1] was 11.5. Moreover, the “Height of aggregates / protrusions in penetrated layer” value in data set [3] is 1–3 nm. In addition, the “Height of aggregates / vertical deviation in penetrated layer” value in data set [4] is listed as “exceeding 3 nm”. Besides, the Intracellular antitubercular activity entry in data set [5] is given as “efficient candidate against intracellular Mycobacterium tuberculosis”.

Regarding “INH-GIGKFLHSAKKFGKAFVGEIMNS [INH–Magainin II, isoniazid conjugated to the N-terminus of Magainin II via glyoxylic acid linker]”, the “Rt, retention time” value in data set [1] is recorded as 13.3.

Turning to Transportan, the Subcellular localization result in data set [2] was “mostly vesicular localization”.

Take “TKPKGTKPKGTKPKGTKPKG [OT20, synthetic oligomer of Tuftsin, cationic carrier peptide]”: the “Rt, retention time” value in data set [1] was 6.7.

As to “RAGLQFPVGRVHRLLRK [Buforin II (5–21), antimicrobial peptide isolated from amphibians]”, the “Rt, retention time” value in data set [1] is 10.9.

For “INH-RAGLQFPVGRVHRLLRK [INH–Buforin II (5–21), isoniazid conjugated to the N-terminus of Buforin II (5–21) via glyoxylic acid linker]”, in data set [1], the “Rt, retention time” value turned out to be 11.0.

In the case of “KRLFKKLLFSLRKY [Dhvar4, synthetic derivative of Histatin, a salivary histidine-rich cationic AMP]”, the “Rt, retention time” value in data set [1] is listed as 11.8.
